Laboratory results published in US20250241974A1, “COMPOSITIONS AND METHODS FOR WOUND HEALING” (University of Maine System Board of Trustees, priority 2024, published 2025).

System: excision wounds
Test: Wound healing assay with CNF hydrogel formulation (Example IV)
Assay type: in vivo
Conditions: citric acid as cross-linking agent

Which “effect on all parameters studied” value does the source give for `O=C(O)CC(O)(CC(=O)O)C(=O)O` [citric acid] here?
Its value is “does not have any effect”.
